Publication PMC12292992, “Betulinic Acid ω-Triphenylphosphonium Alkyl Esters: Antiproliferative Activities and In Silico Pharmacokinetic Profiles” (Biomedicines, 2025)

Assays:
[1] = system: HCT-15 cells; test: MTT cell viability assay, colorectal carcinoma; type: cell-based, human; conditions: Homo sapiens
Experimental: (§1) Human cell lines were obtained from the American Type Culture Collection (ATCC, Manassas, VA, USA). Normal lung MRC-5 fibroblasts (ATCC® CCL-171™), SK-MES-1 lung cancer cells (ATCC® HTB-58™), and J82 bladder carcinoma cells (ATCC® HTB-1™) were grown as monolayers in Eagle’s minimum essential medium (MEM) with Earle’s salts, 2 mM L-glutamine, and 1.5 g/L sodium bicarbonate. Gastric epithelial AGS cells (ATCC® CRL-1739™) were grown as monolayers in Ham’s F-12 medium containing 1 mM L-glutamine and 1.5 g/L sodium bicarbonate. Promyelocytic leukemia HL-60 (ATCC® CCL-240™), colorectal adenocarcinoma HCT-15 (ATCC® CCL-225™), metastatic colorectal COLO205 (ATCC® CCL-222™), and breast cancer AU565 (ATCC® CRL-2351™, ER^−-HER2/neu^+) cells were grown in suspension in an RPMI-1640 medium containing 1 mM sodium pyruvate and 2.0 g/L sodium bicarbonate. Human breast cancer MCF-7 (ATCC® HTB-22™, ER^+-HER2/neu^−) and MDA-MB-231 (ATCC® HTB-26™, ER^−-HER2/neu^−) cells were grown as monolayers in DMEM medium. All media were supplemented with 10% heat-inactivated fetal bovine serum (HI-FBS), 100 IU/mL penicillin G, and 100 µg/mL streptomycin. Cells were maintained at 37 °C in a humidified incubator with 5% CO2.
(§2) MRC-5, SK-MES-1, J82, and AGS cells were seeded at a density of 5 × 10^4 cells/mL in 96-well plates. COLO205, HCT-15, MCF-7, MDA-MB-231, and AU565 cells were seeded at 1 × 10^5 cells/mL, while HL-60 cells were plated at 3 × 10^5 cells/mL. A volume of 100 µL of the cell suspension was added to each well. After 24 h, the compounds were added in increasing concentrations (ranging from 0 to 100 µM), and cells were incubated for 24, 48, or 72 h. The compounds were dissolved in DMSO and diluted in complete medium to a final concentration of 0.5% DMSO. Cells treated with 0.5% DMSO in complete medium were used as viability controls (100%). Etoposide (98% purity, Sigma-Aldrich, St. Louis, MO, USA) was used as the reference compound. Each concentration was tested in quadruplicate, and each experiment was performed twice using independent cell preparations. At the end of the incubation period, cell viability was determined using the MTT reduction assay. The results were transformed into percentages relative to controls, and IC50 values were obtained graphically from the dose–response curves. Results are presented as IC50 values ± standard deviation (SD).

[2] = system: MRC-5 normal human lung fibroblasts; test: MTT cell viability assay, normal lung fibroblasts; type: cell-based; conditions: MRC5, MRC-5, 72 h
Experimental: as §1, §2

[3] = system: SK-MES-1 cells; test: MTT cell viability assay, lung cancer; type: cell-based; conditions: Homo sapiens, SK-MES-1, 72 h
Experimental: as §1, §2

[4] = system: AGS cells; test: MTT cell viability assay, gastric adenocarcinoma; type: cell-based; conditions: Homo sapiens, 72 h
Experimental: as §1, §2

[5] = system: J82 cells; test: MTT cell viability assay, bladder carcinoma; type: cell-based; conditions: Homo sapiens, J82, 72 h
Experimental: as §1, §2

[6] = system: HL-60 cells; test: MTT cell viability assay, leukemia; type: cell-based; conditions: Homo sapiens, HL-60, 72 h
Experimental: as §1, §2

[7] = system: AU565 cells; test: MTT cell viability assay, mammary carcinoma; type: cell-based, human; conditions: Homo sapiens
Experimental: as §1, §2

[8] = system: COLO205 cells; test: MTT cell viability assay, metastatic colorectal cancer; type: cell-based, human; conditions: Homo sapiens, COLO 205
Experimental: as §1, §2

[9] = system: MDA-MB-231 cells; test: MTT cell viability assay, mammary carcinoma; type: cell-based; conditions: Homo sapiens
Experimental: as §1, §2

[10] = system: MCF-7 cells; test: MTT cell viability assay, mammary carcinoma; type: cell-based; conditions: Homo sapiens, MCF7
Experimental: as §1, §2

[11] = system: MCF-7 cells; test: Oxygen consumption assay (Clark-type electrode); type: cell-based, human; conditions: MCF-7, 10 and 20 µM
Experimental: Oxygen consumption of the tumor cells was measured polarographically using a Clark-type electrode (Yellow Springs Instruments, Dayton, OH, USA) placed horizontally in a cell of 0.6 mL volume at 25 °C, coupled to a YSI monitor (model 53). The electrode signal was recorded in a computer connected to a DI-148U module with a USB interface. Data were acquired using the Windaq Acquisition Waveform Recorder software v3.36 (DataQ Instruments, Akron, OH, USA). The test medium used contained 150 mM NaCl, 5 mM KCl, and 1 mM Tris-HCl, and pH 7.4. 5 mM glutamine was added with the cells and test compounds. Oxygen consumption was recorded when the cell aliquots (6 × 10^6 cells) were added. Oligomycin (1.5 μg/mL) was added as an inhibitor of the Fo subunit of ATP synthase prior to the incorporation of the compounds under study. FCCP (carbonyl cyanide-p-trifluoromethoxyphenylhydrazone, 50 nM) was used prior to the addition of test compounds as an internal control to calibrate the electrode system and confirm the maximum uncoupling capacity of the cells.

[12] = system: human cancer cell lines; test: MTT cell viability, summary over the human cancer cell lines; type: cell-based; conditions: nine human cancer cell lines, relative to BA, summary statement
Experimental: as §1, §2

[13] = set-up: method as in PMID 17576843, PMID 17638699; conditions: oral administration, healthy individuals and patients with HIV, cited from earlier work

Row | Structure (SMILES) | IC50 ([1]; HCT-15, 24 h) | IC50 ([1]; HCT-15, 48 h) | IC50 ([1]; HCT-15, 72 h) | IC50 [2] | IC50 [3] | IC50 [4] | IC50 [5] | IC50 [6] | IC50 ([7]; AU565, 24 h) | IC50 ([7]; AU565, 48 h) | IC50 ([8]; COLO205, 24 h) | IC50 ([8]; COLO205, 48 h) | IC50 ([8]; COLO205, 72 h) | IC50 ([9]; MDA-MB-231, 24 h) | IC50 ([9]; MDA-MB-231, 48 h) | IC50 ([10]; MCF-7, 24 h) | IC50 ([10]; MCF-7, 48 h) | mitochondrial uncoupling effect [11] | increase in potency [12] | further results
1 | C=C(C)[C@@H]1CC[C@]2(C(=O)O)CC[C@]3(C)[C@H](CC[C@@H]4[C@@]5(C)CC[C@H](O)C(C)(C)[C@@H]5CC[C@]43C)[C@@H]12 [BA, 3β-hydroxy-lup-20(29)-en-28-oic acid, reference compound] | 43800 ± 3640 nM | 9470 ± 3100 nM | 3890 ± 1300 nM | 56700 ± 4300 nM | 44800 ± 2700 nM | 14100 ± 500 nM | 32800 ± 1700 nM | 21900 ± 1500 nM | 33090 ± 170 nM | 9290 ± 980 nM | 97700 ± 1020 nM | 74600 ± 2870 nM | 34300 ± 2580 nM |  |  |  |  |  |  | 
2 | C=C(C)[C@@H]1CC[C@]2(C(=O)OCCCCC[P+](c3ccccc3)(c3ccccc3)c3ccccc3)CC[C@]3(C)C(CCC4[C@@]5(C)CC[C@H](O)C(C)(C)C5CC[C@]43C)C12 (stereo partly drawn) [BA-C5-TPP^+Br^−, 5-Triphenylphosphoniopentyl 3β-hydroxylup-20(29)-en-28-oate bromide] | 5170 ± 1320 nM | 1930 ± 360 nM | 1930 ± 320 nM | 830 ± 20 nM | 470 ± 40 nM | 770 ± 80 nM | 1220 ± 10 nM | 630 ± 50 nM | 5910 ± 80 nM | 1020 ± 180 nM | 4320 ± 2400 nM | 1620 ± 1150 nM | 1610 ± 20 nM | 5500 ± 600 nM | 2530 ± 650 nM | 8680 ± 1270 nM | 1770 ± 400 nM | concentration-dependent uncoupling effect, though less pronounced than that of BA-C4-TPP^+Br^− | over 100 fold | 
3 | C=C(C)[C@@H]1CC[C@]2(C(=O)OCCCCCC[P+](c3ccccc3)(c3ccccc3)c3ccccc3)CC[C@]3(C)C(CCC4[C@@]5(C)CC[C@H](O)C(C)(C)C5CC[C@]43C)C12 (stereo partly drawn) [BA-C6-TPP^+Br^−, 6-Triphenylphosphoniohexyl 3β-hydroxylup-20(29)-en-28-oate bromide] | 9040 ± 2800 nM | 2890 ± 240 nM | 2400 ± 130 nM | 1350 ± 100 nM | 680 ± 10 nM | 1270 ± 20 nM | 1710 ± 50 nM | 910 ± 10 nM | 6370 ± 310 nM | 1330 ± 120 nM | 4870 ± 1430 nM | 840 ± 390 nM | 970 ± 290 nM | 7280 ± 530 nM | 2660 ± 80 nM | 7690 ± 1320 nM | 4620 ± 530 nM | not seen at the tested concentrations | over 100 fold | 
4 | C=C(C)[C@@H]1CC[C@]2(C(=O)O)CC[C@]3(C)[C@H](CC[C@@H]4[C@@]5(C)CC[C@H](OC(=O)CC(C)(C)C(=O)O)C(C)(C)[C@@H]5CC[C@]43C)[C@@H]12 [Compound 4, 3-O-(3′,3′-Dimethylsuccinyl)-BA] |  |  |  |  |  |  |  |  |  |  |  |  |  |  |  |  |  |  |  | tolerance ([13]; all studied doses): good tolerance at all studied doses; half-life [13]: long half-life; oral absorption [13]: rapid oral absorption
5 | COc1cc([C@@H]2c3cc4c(cc3[C@@H](O[C@@H]3O[C@@H]5CO[C@@H](C)O[C@H]5[C@H](O)[C@H]3O)[C@H]3COC(=O)[C@H]23)OCO4)cc(OC)c1O [Etoposide, reference compound] |  |  |  | 3960 ± 210 nM | 2610 ± 10 nM | 460 ± 40 nM | 2850 ± 20 nM | 820 ± 10 nM |  |  |  |  |  |  |  |  |  |  |  | 
